Measurements from patent US8283377B2, “Method for inhibiting blood vessel stenosis” (China Medical University, priority 2011, dated 2012).
Several values for one entry are separate records, joined by “and”; a condition that tells them apart may be missing. Identical values can stand only once. Marks after values point to notes of the source that are not given here.

Columns and labels:
[1] = system: rat aortic smooth muscle cell line A7r5; assay: Inhibiting proliferation of smooth muscle cells - cell cycle analysis (propidium iodide flow cytometry); type: cell-based; details: 24 hours
Procedure: (§1) A rat aortic smooth muscle cell line A7r5 was used to carry out the present experiment. A Dulbecco's modified Eagle's medium (DMEM, purchased from Biowest) was used as a general culture medium. The medium was added with 4 mM of L-glutamine, 1.5 g/L sodium bicarbonate, 4.5 g/L glucose, and 10 wt % fetal bovine serum. The A7r5 smooth muscle cells were cultured in a 75 cm^2 petri dish, and 12 mL of the culture medium was added thereinto. The cells were placed and incubated in a cell incubator containing 5 vol % of carbon dioxide at 37° C. After the dish was fully covered by the grown cells, the medium was replaced once every 3 days, and 0.5 wt % trypsin was used for subculture.
(§2) In addition, a culture medium containing n-butylidenephthalide was prepared. Herein, n-butylidenephthalide was dissolved in dimethyl sulfoxide (purchased from Sigma), and solutions with n-butylidenephthalide concentrations of 0, 25, 50, 100, 150, and 200 mg/mL were prepared, and the solutions were stored at −20° C. When used to prepare a medium, the solutions were diluted by 1000 times with the general culture medium used for incubating smooth muscle cells to prepare a culture medium containing 0, 25, 50, 100, 150, or 200 μg/mL of n-butylidenephthalide.
An inhibition test on the cell cycle progression of smooth muscle cells was carried out. Because the cellular DNA content is different in each cell cycle phase, the amount of DNA can be used to evaluate the cell cycle phase in which the cell proceeds. In another aspect, because propidium iodide can bind to DNA, and it can emit red fluorescent light with a wavelength of 625 nm after being excited by light with a wavelength of 488 nm, thus, propidium iodide was used as a fluorescent staining agent in the present experiment, and the red fluorescent intensity represented the amount of DNA, thereby determining which phase the cell was in during the cell cycle.
The rat aortic smooth muscle cell line A7r5 was inoculated in a 6-hole culture dish (density: 1×10^5 cells/hole). After the cells were cultured for 24 hours, the medium was replaced by a medium containing n-butylidenephthalide with a concentration of 0, 25, or 50 μg/mL to culture the smooth muscle cells. After another 24 hours, the cells were fixed with 70 vol % alcohol, and a phosphate buffer solution (PBS) was used to rinse the cells. Finally, propidium iodide (a solution containing 955 μL 1×PBS, 5 μL Triton X-100 (0.5 wt %, purchased from Sigma), 20 μL RNase A (10 mg/mL, purchased from Sigma), and 20 μL propidium iodide (1 mg/mL, purchased from Sigma)) was used to stain the cells for 15 minutes. Then, a flow cytometry (FC500, Beckman) was used to scan and collect 10,000 cells. Multicycle for Windows software (Phoenix Flow Systems) was used to analyze cellular cell cycle.

[2] = system: rat aortic smooth muscle cell line A7r5; assay: Inhibiting proliferation of smooth muscle cells - cell counting analysis (trypan blue); type: cell-based; details: 48 hours
Procedure: as §1, §2
The rat aortic smooth muscle cell line A7r5 was inoculated in a 6-hole culture dish (density: 1×10^5 cells/hole). After the cells were cultured for 24 hours, the medium was replaced by a medium containing n-butylidenephthalide with a concentration of 0, 25, 50, 100, 150, or 200 μg/mL to culture the smooth muscle cells. After another 48 hours, the cells were observed by an inverted microscope, and the cells were detached by 0.5 wt % trypsin. Then, 20 μL of the cell suspension was taken and mixed evenly with 20 μL trypan blue, and finally, 10 μL of the mixture was collected and added onto a blood cell counting plate. The cell number was counted by a microscope under 100× magnifications to evaluate the inhibition of n-butylidenephthalide on the growth of the smooth muscle cells.

[3] = system: carotid artery of Sprague-Dawley (SD) rats after balloon catheter injury; assay: Animal test - treatment of carotid artery injury induced blood vessel stenosis; type: in vivo, rat; details: for Blood vessel neointimal layer area /middle layer area (intima/media ratio) / Blood vessel neointimal layer area: day 14
Procedure: Sprague-Dawley (SD) rats (purchased from BioLasco Taiwan Co. Ltd, Taipei) were used in the present experiment to carry out the animal test. The rats were bred in an environment with 12 hours light, followed by 12 hours dark, and fed to 10-weeks old (body weight: about 300 to 400 g). Then, carotid artery injury surgery and the following experiments were carried out. The present experiment followed the Animal Protection Act and the provisions of Animal Management Committee of National Dong Hwa University.
The SD rat was anesthetized by 320 mg/kg-body-weight chloral hydrate (purchased from Fluka), and then the abdominal area was faced upwards, and the limbs were fixed with a breathable tape on a surgery plate. The Casscells' method (Casscells et al., Migration of smooth muscle and endothelial cells. Critical events in restenosis, Circulation, 1992; 86; 723-729, which is incorporated hereinto by reference) was used to carry out the carotid artery injury surgery. First, the skin of the rat was cut open with a scissor from the midline of the neck jaw to the chest area, and then the connective tissue at the right side of the rat neck was separated from the muscle layer to expose the blood vessel next to the trachea, and the blood vessel is the common carotid artery. The right side common carotid artery, internal carotid artery, and external carotid artery were separated, and the connective tissue at the junction of these three blood vessels was completely striped. Then, the external carotid artery was tied up with a 2/0 sized silk thread, and the common carotid artery was clipped by a vascular clip to avoid heavy bleeding. A gap was made by cutting the external carotid artery with a microscopic scissor, and a balloon catheter (Cather French Size 2F, purchased from Edwards Lifescience) was implanted through the gap. The balloon catheter was inserted 5 cm into the common carotid artery, and 0.2 mL of a physiological saline solution was filled into the balloon catheter to expend the catheter. Then, the balloon catheter was pulled out to the gap of the external carotid artery, and the physiological saline solution was drawn out from the balloon catheter. After the common carotid artery was injured repeatedly for three times by this method, the gap of the external carotid artery and the bifurcation point between the external carotid artery and the common carotid artery were tied up with a 2/0 sized silk thread. Finally, the wound of the rat was stitched up and spread with an iodine solution. After the rat woke up, the carotid artery injury surgery was completed.
Two weeks after the carotid artery injury surgery, the rat was sacrificed with excess chloral hydrate (640 mg/kg-body weight). PBS (300 mL) was injected into the left ventricle of the rat using the heart perfusion method and flowed out from the right ventricle through systemic circulation. Neutral formalin (200 mL, 10 vol %) was injected into the left ventricle of the rat to immobilize the whole body tissue. The common carotid artery immobilized by formalin was removed and soaked in a 10 vol % neutral formalin solution.
The common carotid artery was divided into four sections and labeled with A, B, C, and D from the head to the heart. Each section was 4 mm in length and was placed in an embedding cassette, and then an automatic tissue processor (purchased from Sakura) was used to process the tissue. The process procedure was 1 hour in a 10 vol % formalin solution, 30 minutes in water, 1 hour in 80 vol % alcohol, 3 hours in 95 vol % alcohol, 4 hours in 100 vol % alcohol, 3 hours in xylene, and 3 hours in paraffin. After the tissue process procedure was completed, the tissue was wrapped by paraffin, and the tissue biopsy was carried out by a slicer (purchased from Lica) with a cut of 8 μm thickness. Immunohistochemical stain and H&E stain on the biopsy were carried out. […]

Structure (SMILES): CCC/C=C1\OC(=O)c2ccccc21 [n-butylidenephthalide]
- effect on cell cycle of smooth muscle cells (in words) ([1]; 25 and 50 μg/mL): stagnate the smooth muscle cells in the G0/G1 phase
- Ratio of cells in cell cycle phase G0/G1 ([1]; 25 μg/mL): 68.33 +/− 0.05%
- Ratio of cells in cell cycle phase G0/G1 ([1]; 50 μg/mL): 68.9% and 68.86 +/− 5.2%
- Ratio of cells in cell cycle phase G2/M ([1]; 25 μg/mL): 11.3 +/− 1.25%
- Ratio of cells in cell cycle phase G2/M ([1]; 50 μg/mL): 12.1 +/− 1.15%
- Ratio of cells in cell cycle phase S ([1]; 25 μg/mL): 20.33 +/− 2.05%
- Ratio of cells in cell cycle phase S ([1]; 50 μg/mL): 19.0% and 19.00 +/− 4.3%
- Growth rate ([2]; 25 μg/mL): 0.56 +/− 0.06%
- Growth rate ([2]; 50 μg/mL): 0.32 +/− 0.04%
- Growth rate ([2]; 100 μg/mL): 0.25 +/− 0.03%
- Growth rate ([2]; 150 μg/mL): 0.12 +/− 0.04%
- Growth rate ([2]; 200 μg/mL): 0.10 +/− 0.02%
- inhibition at 25 µg/mL ([2]; Rattus norvegicus, 25 μg/mL, read-out: inhibition rate of smooth muscle cell growth): 43.6%
- IC50 ([2]; Rattus norvegicus, read-out: IC50 of smooth muscle cell growth): 27 µg/mL and 143 µM
- inhibition of blood vessel stenosis (in words) ([3]; 60 mg/kg-body weight): no significant inhibition effect
- proportion of the rats whose increased area of the blood vessel neointimal layer was under 1×10^5 μm^2 ([3]; 60 mg/kg-body weight): 0%
- Blood vessel neointimal layer area /middle layer area (intima/media ratio) ([3]; 60 mg/kg-body weight): 1.3 +/− 0.3
- number of rats with increased neointimal area 0~50,000 μm^2 ([3]; 60 mg/kg-body weight, n = 6): 0
- number of rats with increased neointimal area 50,000~100,000 μm^2 ([3]; 60 mg/kg-body weight, n = 6): 0
- number of rats with increased neointimal area 100,000~150,000 μm^2 ([3]; 60 mg/kg-body weight, n = 6): 4
- number of rats with increased neointimal area Above 150,000 μm^2 ([3]; 60 mg/kg-body weight, n = 6): 2
- proportion of rats with increased neointimal area 100,000~150,000 μm^2 ([3]; 60 mg/kg-body weight, n = 6): 66.7%
- proportion of rats with increased neointimal area Above 150,000 μm^2 ([3]; 60 mg/kg-body weight, n = 6): 33.3%
- inhibition of blood vessel stenosis (in words) ([3]; 150 mg/kg-body weight): significantly be inhibited
- inhibition of blood vessel stenosis compared with the sham group (intima/media ratio) ([3]; 150 mg/kg-body weight): 36.7%
- inhibition of blood vessel stenosis compared with the sham group (neointimal layer area) ([3]; 150 mg/kg-body weight): 36.3%
- proportion of the rats whose increased area of the blood vessel neointimal layer was under 1×10^5 μm^2 ([3]; 150 mg/kg-body weight): 50%
- Blood vessel neointimal layer area /middle layer area (intima/media ratio) ([3]; 150 mg/kg-body weight, P < 0.05): 0.81 +/− 0.14*
- number of rats with increased neointimal area 0~50,000 μm^2 ([3]; 150 mg/kg-body weight, n = 6): 0
- number of rats with increased neointimal area 50,000~100,000 μm^2 ([3]; 150 mg/kg-body weight, n = 6): 3
- number of rats with increased neointimal area 100,000~150,000 μm^2 ([3]; 150 mg/kg-body weight, n = 6): 3
- number of rats with increased neointimal area Above 150,000 μm^2 ([3]; 150 mg/kg-body weight, n = 6): 0
- proportion of rats with increased neointimal area 50,000~100,000 μm^2 ([3]; 150 mg/kg-body weight, n = 6): 50%
- proportion of rats with increased neointimal area 100,000~150,000 μm^2 ([3]; 150 mg/kg-body weight, n = 6): 50%
- inhibition of blood vessel stenosis (in words) ([3]; 300 mg/kg-body weight): significantly be inhibited
- inhibition of blood vessel stenosis compared with the sham group (intima/media ratio) ([3]; 300 mg/kg-body weight): 57.8%
- inhibition of blood vessel stenosis compared with the sham group (neointimal layer area) ([3]; 300 mg/kg-body weight): 56.2%
- proportion of the rats whose increased area of the blood vessel neointimal layer was under 1×10^5 μm^2 ([3]; 300 mg/kg-body weight): 83.3%
- Blood vessel neointimal layer area /middle layer area (intima/media ratio) ([3]; 300 mg/kg-body weight, P < 0.01): 0.54 +/− 0.24**
- number of rats with increased neointimal area 0~50,000 μm^2 ([3]; 300 mg/kg-body weight, n = 6): 2
- number of rats with increased neointimal area 50,000~100,000 μm^2 ([3]; 300 mg/kg-body weight, n = 6): 3
- number of rats with increased neointimal area 100,000~150,000 μm^2 ([3]; 300 mg/kg-body weight, n = 6): 1
- number of rats with increased neointimal area Above 150,000 μm^2 ([3]; 300 mg/kg-body weight, n = 6): 0
- proportion of rats with increased neointimal area 0~50,000 μm^2 ([3]; 300 mg/kg-body weight, n = 6): 33.3%
- proportion of rats with increased neointimal area 50,000~100,000 μm^2 ([3]; 300 mg/kg-body weight, n = 6): 50.0%
- proportion of rats with increased neointimal area 100,000~150,000 μm^2 ([3]; 300 mg/kg-body weight, n = 6): 16.7%
- Blood vessel neointimal layer area ([3]; carotid artery Section A, 60 mg/kg-body weight abdominal injection, days 1,3,5,7,9,11): 164528 +/− 81467 μm^2
- Blood vessel neointimal layer area ([3]; carotid artery Section A, 150 mg/kg-body weight abdominal injection): 75272 +/− 36346 μm^2
- Blood vessel neointimal layer area ([3]; carotid artery Section A, 300 mg/kg-body weight abdominal injection): 53118 +/− 33403 μm^2
- Blood vessel neointimal layer area ([3]; carotid artery Section B, 60 mg/kg-body weight abdominal injection): 168355 +/− 37686 μm^2
- Blood vessel neointimal layer area ([3]; carotid artery Section B, 150 mg/kg-body weight abdominal injection): 119827 +/− 35005 μm^2
- Blood vessel neointimal layer area ([3]; carotid artery Section B, 300 mg/kg-body weight abdominal injection): 76551 +/− 45327 μm^2
- Blood vessel neointimal layer area ([3]; carotid artery Section C, 60 mg/kg-body weight abdominal injection): 138260 +/− 36681 μm^2
- Blood vessel neointimal layer area ([3]; carotid artery Section C, 150 mg/kg-body weight abdominal injection): 93111 +/− 19875 μm^2
- Blood vessel neointimal layer area ([3]; carotid artery Section C, 300 mg/kg-body weight abdominal injection): 61150 +/− 27899 μm^2
- Blood vessel neointimal layer area ([3]; carotid artery Section D, 60 mg/kg-body weight abdominal injection): 130852 +/− 77915 μm^2
- Blood vessel neointimal layer area ([3]; carotid artery Section D, 150 mg/kg-body weight abdominal injection): 85273 +/− 15262 μm^2
- Blood vessel neointimal layer area ([3]; carotid artery Section D, 300 mg/kg-body weight abdominal injection): 66654 +/− 23434 μm^2
- Blood vessel neointimal layer area ([3]; whole carotid artery (Table 4), 60 mg/kg-body weight): 150499 +/− 34951 μm^2
- Blood vessel neointimal layer area ([3]; whole carotid artery (Table 4), 150 mg/kg-body weight, P < 0.01): 93371 +/− 14693 ** μm^2
- Blood vessel neointimal layer area ([3]; whole carotid artery (Table 4), 300 mg/kg-body weight, P < 0.01): 64368 +/− 20641 ** μm^2
